In brackets after ≈: the same amount, converted by molar mass. Structures can show the parent of a compound that is named as a salt.

The record followed here is US3992371A, “Penicillins substituted with heterocyclic and substituted phenyl groups” (Sumitomo Chemical Company, Limited, priority 1973, dated 1976).

What all share (experiment): Minimal inhibitory concentration, agar dilution method
What all share (format): cell-based
A general note: In agar dilution, organisms are placed on agar that contains the substance at set levels.

Experiment [1] deals with Proteus miravilis GN2425.
For experiment [2], the system named is Proteus vulgaris HV19.
The test system of experiment [3] is Staphylococcus aureus 209P. The text has this:
(§1) When determined according to the agar dilution method, the penicillins (I) afford the minimal inhibitory concentrations against test microorganisms as shown in Table 2.

Experiment [4] concerns Escherichia coli NIHJ.
Source text: as §1

The subject of experiment [5] is Klebsiella pneumoniae PCI602.
Source text: as §1

Experiment [6] relates to Pseudomonas aeruginosa 104.
Source text: as §1

Turning to `CC1(C)SC2C(NC(=O)C(NC(=O)c3cnc4cc5c(cc4c3S)OCO5)c3cccc(N)c3)C(=O)N2C1C(=O)O` (stereo not drawn) [Example 36], the MIC (in general, the lowest concentration found to suppress growth) was found to be 6.25 µg/mL (≈ 10.5 µM) in experiment [1]; 0.39 µg/mL (≈ 0.655 µM) in experiment [2]; 0.78 µg/mL (≈ 1.31 µM) in experiment [3]; 6.25 µg/mL (≈ 10.5 µM) in experiment [4]; 12.5 µg/mL (≈ 21 µM) in experiment [5]; 3.13 µg/mL (≈ 5.25 µM) in experiment [6].
On to `CC1(C)S[C@@H]2[C@H](NC(=O)[C@H](NC(=O)c3cnc4cccnc4c3O)c3cccc(N)c3)C(=O)N2[C@H]1C(=O)O` [Example 1, D-α-(4-hydroxy-1,5-naphthyridine-3-carboxamido)-m-aminobenzylpenicillin sodium salt], for which the MIC was determined as 0.78 µg/mL in experiment [1]; 0.025 µg/mL in experiment [2]; 1.56 µg/mL in experiment [3]; 0.78 µg/mL in experiment [4]; 6.25 µg/mL in experiment [5]; 1.56 µg/mL in experiment [6].
Take `COc1cc(C(NC(=O)c2cnc3cccnc3c2O)C(=O)NC2C(=O)N3C2SC(C)(C)C3C(=O)O)ccc1O` (stereo not drawn) [Example 64]: the MIC in experiment [1] stood at 3.13 µg/mL (≈ 5.51 µM); in experiment [2], 0.05 µg/mL (≈ 0.0881 µM); in experiment [3], 1.56 µg/mL (≈ 2.75 µM); in experiment [4] it was 3.13 µg/mL (≈ 5.51 µM); in experiment [5] it was 12.5 µg/mL (≈ 22 µM); in experiment [6] it was 1.56 µg/mL (≈ 2.75 µM).
On to `COc1ccc2ncc(C(=O)NC(C(=O)N[C@@H]3C(=O)N4[C@@H]3SC(C)(C)[C@@H]4C(=O)O)c3cccc(N)c3)c(O)c2n1` (stereo partly drawn) [Example 23], for which the MIC turned out to be 1.56 µg/mL (≈ 2.75 µM) in experiment [1]; 0.05 µg/mL (≈ 0.0882 µM) in experiment [2]; 1.56 µg/mL (≈ 2.75 µM) in experiment [3]; 0.78 µg/mL (≈ 1.38 µM) in experiment [4]; 6.25 µg/mL (≈ 11 µM) in experiment [5]; 1.56 µg/mL (≈ 2.75 µM) in experiment [6].
For `CC1(C)SC2C(NC(=O)C(NC(=O)c3cnc4cc5c(cc4c3O)OCC5)c3cccc(N)c3)C(=O)N2C1C(=O)O` (stereo not drawn) [Example 49], the MIC amounted to 3.13 µg/mL (≈ 5.42 µM) in experiment [1]; 0.2 µg/mL (≈ 0.346 µM) in experiment [2]; 0.78 µg/mL (≈ 1.35 µM) in experiment [3]; 3.13 µg/mL (≈ 5.42 µM) in experiment [4]; 6.25 µg/mL (≈ 10.8 µM) in experiment [5]; 3.13 µg/mL (≈ 5.42 µM) in experiment [6].
In the case of `CSc1nc2ccc3ncc(C(=O)NC(C(=O)NC4C(=O)N5C4SC(C)(C)C5C(=O)O)c4cccc(N)c4)c(O)c3c2s1` (stereo not drawn) [Example 51], the MIC amounted to 3.13 µg/mL (≈ 4.9 µM) in experiment [1]; 0.2 µg/mL (≈ 0.313 µM) in experiment [2]; 0.78 µg/mL (≈ 1.22 µM) in experiment [3]; 3.13 µg/mL (≈ 4.9 µM) in experiment [4]; 6.25 µg/mL (≈ 9.78 µM) in experiment [5]; 3.13 µg/mL (≈ 4.9 µM) in experiment [6].
Regarding `Cc1cc(C(NC(=O)c2cnc3cccnc3c2O)C(=O)NC2C(=O)N3C2SC(C)(C)C3C(=O)O)ccc1O` (stereo not drawn) [Example 60], the minimal inhibitory concentration (MIC) in experiment [1] was determined as 1.56 µg/mL (≈ 2.83 µM); in experiment [2], 0.05 µg/mL (≈ 0.0906 µM); in experiment [3], 0.78 µg/mL (≈ 1.41 µM); in experiment [4] it was 0.78 µg/mL (≈ 1.41 µM); in experiment [5], 6.25 µg/mL (≈ 11.3 µM); in experiment [6] it was 1.56 µg/mL (≈ 2.83 µM).
As for `COc1ccc(C(NC(=O)c2cnc3cn[nH]c3c2O)C(=O)NC2C(=O)N3C2SC(C)(C)C3C(=O)O)cc1` (stereo not drawn) [Example 34], the minimal inhibitory concentration (MIC) in experiment [1] stood at 6.25 µg/mL (≈ 11.6 µM); in experiment [2], 0.1 µg/mL (≈ 0.185 µM); in experiment [3], 0.78 µg/mL (≈ 1.44 µM); in experiment [4], 3.13 µg/mL (≈ 5.79 µM); in experiment [5] it was 12.5 µg/mL (≈ 23.1 µM); in experiment [6] it was 3.13 µg/mL (≈ 5.79 µM).
Consider `CC1(C)SC2C(NC(=O)C(NC(=O)c3cnc4c5c(ccc4c3O)CCC5)c3cccc(N)c3)C(=O)N2C1C(=O)O` (stereo not drawn) [Example 50], for which the minimal inhibitory concentration (MIC) in experiment [1] is 12.5 µg/mL (≈ 21.7 µM); in experiment [2], 0.39 µg/mL (≈ 0.677 µM); in experiment [3], 0.78 µg/mL (≈ 1.35 µM); in experiment [4], 3.13 µg/mL (≈ 5.44 µM); in experiment [5] it was 12.5 µg/mL (≈ 21.7 µM); in experiment [6] it was 3.13 µg/mL (≈ 5.44 µM).
Take `Cc1ccc2ncc(C(=O)NC(C(=O)N[C@@H]3C(=O)N4[C@@H]3SC(C)(C)[C@@H]4C(=O)O)c3ccc(N)cc3)c(O)c2n1` (stereo partly drawn) [Example 21]: the MIC in experiment [1] is 1.56 µg/mL (≈ 2.83 µM); in experiment [2], 0.025 µg/mL (≈ 0.0454 µM); in experiment [3] it was 1.56 µg/mL (≈ 2.83 µM); in experiment [4] it was 0.78 µg/mL (≈ 1.42 µM); in experiment [5], 3.13 µg/mL (≈ 5.68 µM); in experiment [6], 0.78 µg/mL (≈ 1.42 µM).
Turning to `COc1ccc(C(NC(=O)c2cnc3ccccc3c2S)C(=O)NC2C(=O)N3C2SC(C)(C)C3C(=O)O)cc1` (stereo not drawn) [Example 38], the MIC in experiment [1] was 6.25 µg/mL (≈ 11 µM); in experiment [2], 0.39 µg/mL (≈ 0.688 µM); in experiment [3], 0.78 µg/mL (≈ 1.38 µM); in experiment [4], 6.25 µg/mL (≈ 11 µM); in experiment [5], 12.5 µg/mL (≈ 22.1 µM); in experiment [6], 3.13 µg/mL (≈ 5.52 µM).
For the molecule `CCNc1ccc(C(NC(=O)c2cnc3cccnc3c2O)C(=O)N[C@@H]2C(=O)N3[C@@H]2SC(C)(C)[C@@H]3C(=O)O)cc1` (stereo partly drawn) [Example 10], the MIC in experiment [1] came out at 0.78 µg/mL (≈ 1.38 µM); in experiment [2] it was 0.05 µg/mL (≈ 0.0886 µM); in experiment [3], 1.56 µg/mL (≈ 2.76 µM); in experiment [4], 0.78 µg/mL (≈ 1.38 µM); in experiment [5], 12.5 µg/mL (≈ 22.1 µM); in experiment [6], 1.56 µg/mL (≈ 2.76 µM).
Take `Cc1ncc2c(O)c(C(=O)NC(C(=O)NC3C(=O)N4C3SC(C)(C)C4C(=O)O)c3cccc(N)c3)cnc2n1` (stereo not drawn) [Example 58]: the MIC in experiment [1] is 3.13 µg/mL (≈ 5.67 µM); in experiment [2], 0.05 µg/mL (≈ 0.0906 µM); in experiment [3], 1.56 µg/mL (≈ 2.83 µM); in experiment [4], 1.56 µg/mL (≈ 2.83 µM); in experiment [5] it was 12.5 µg/mL (≈ 22.7 µM); in experiment [6], 3.13 µg/mL (≈ 5.67 µM).
